Experimental findings from US20140113898A1, “BISARYLSULFONE AND DIALKYLARYLSULFONE COMPOUNDS AS CALCIUM CHANNEL BLOCKERS” (Zalicus Pharmaceuticals Ltd., priority 2010, published 2014) are described below.

The target of the assay is T1, CaV2.2 (Homo sapiens, UniProt Q00975).
T1 construct: expressed in transfected cells; host or cells: unnamed doxycycline-inducible cell line
T1 sequence (Q00975 whole entry): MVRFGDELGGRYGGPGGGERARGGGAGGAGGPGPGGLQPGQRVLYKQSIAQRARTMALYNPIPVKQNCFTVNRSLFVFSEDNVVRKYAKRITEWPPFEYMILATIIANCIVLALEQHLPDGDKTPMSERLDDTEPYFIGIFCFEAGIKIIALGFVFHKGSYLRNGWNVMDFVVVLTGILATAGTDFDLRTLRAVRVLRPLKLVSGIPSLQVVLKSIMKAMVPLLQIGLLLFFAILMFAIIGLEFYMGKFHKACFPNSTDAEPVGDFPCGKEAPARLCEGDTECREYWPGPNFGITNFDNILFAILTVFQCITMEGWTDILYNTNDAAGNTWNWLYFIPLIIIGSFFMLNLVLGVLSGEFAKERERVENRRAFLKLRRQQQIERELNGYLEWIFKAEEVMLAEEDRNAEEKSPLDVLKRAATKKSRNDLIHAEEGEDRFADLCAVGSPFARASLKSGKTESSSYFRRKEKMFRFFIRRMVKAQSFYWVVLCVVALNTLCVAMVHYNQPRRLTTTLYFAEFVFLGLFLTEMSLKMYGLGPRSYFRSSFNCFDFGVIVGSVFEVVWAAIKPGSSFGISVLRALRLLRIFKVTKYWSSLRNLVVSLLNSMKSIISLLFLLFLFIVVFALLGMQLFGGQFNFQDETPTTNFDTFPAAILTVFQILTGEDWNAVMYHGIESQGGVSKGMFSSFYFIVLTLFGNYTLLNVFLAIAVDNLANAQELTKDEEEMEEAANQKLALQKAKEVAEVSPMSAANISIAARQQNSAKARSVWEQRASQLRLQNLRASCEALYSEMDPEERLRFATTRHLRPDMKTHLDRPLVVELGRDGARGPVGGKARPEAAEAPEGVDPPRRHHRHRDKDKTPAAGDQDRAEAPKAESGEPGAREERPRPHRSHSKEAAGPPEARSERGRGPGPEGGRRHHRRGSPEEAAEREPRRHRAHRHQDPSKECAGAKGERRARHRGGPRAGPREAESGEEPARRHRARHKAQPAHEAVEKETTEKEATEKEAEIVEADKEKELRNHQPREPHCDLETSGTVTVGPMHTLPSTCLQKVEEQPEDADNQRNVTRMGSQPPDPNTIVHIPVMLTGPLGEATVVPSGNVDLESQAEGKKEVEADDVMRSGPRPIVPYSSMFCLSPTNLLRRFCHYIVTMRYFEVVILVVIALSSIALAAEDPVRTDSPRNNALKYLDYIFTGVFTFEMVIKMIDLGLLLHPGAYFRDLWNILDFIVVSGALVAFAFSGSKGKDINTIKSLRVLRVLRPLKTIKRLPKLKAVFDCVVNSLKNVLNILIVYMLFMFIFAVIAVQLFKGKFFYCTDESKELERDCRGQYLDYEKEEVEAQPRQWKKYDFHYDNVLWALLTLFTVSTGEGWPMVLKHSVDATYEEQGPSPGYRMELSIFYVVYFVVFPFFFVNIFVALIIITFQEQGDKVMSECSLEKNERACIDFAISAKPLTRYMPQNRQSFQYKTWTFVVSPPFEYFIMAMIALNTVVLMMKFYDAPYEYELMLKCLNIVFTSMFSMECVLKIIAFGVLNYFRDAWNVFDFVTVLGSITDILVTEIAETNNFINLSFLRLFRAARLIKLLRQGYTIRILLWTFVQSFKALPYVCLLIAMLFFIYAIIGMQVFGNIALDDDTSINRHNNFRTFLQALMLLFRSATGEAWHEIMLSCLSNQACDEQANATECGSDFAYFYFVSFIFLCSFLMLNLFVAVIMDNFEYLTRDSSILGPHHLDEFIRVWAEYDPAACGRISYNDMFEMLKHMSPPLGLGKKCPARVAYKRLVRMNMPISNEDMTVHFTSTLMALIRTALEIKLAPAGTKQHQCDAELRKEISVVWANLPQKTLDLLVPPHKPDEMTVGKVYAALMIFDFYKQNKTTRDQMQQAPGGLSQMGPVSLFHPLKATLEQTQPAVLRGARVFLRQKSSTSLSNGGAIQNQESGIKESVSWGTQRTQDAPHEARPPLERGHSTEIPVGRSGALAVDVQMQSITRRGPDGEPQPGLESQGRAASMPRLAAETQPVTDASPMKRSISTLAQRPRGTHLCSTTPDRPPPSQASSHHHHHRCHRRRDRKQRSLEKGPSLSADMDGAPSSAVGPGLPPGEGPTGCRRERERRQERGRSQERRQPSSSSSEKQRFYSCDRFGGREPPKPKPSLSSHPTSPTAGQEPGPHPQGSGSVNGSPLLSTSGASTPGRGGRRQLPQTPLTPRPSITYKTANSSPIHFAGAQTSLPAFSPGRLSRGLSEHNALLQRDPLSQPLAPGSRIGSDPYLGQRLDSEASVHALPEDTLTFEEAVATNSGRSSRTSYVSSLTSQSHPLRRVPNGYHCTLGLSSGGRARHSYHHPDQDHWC
T1 sequence (P54284 whole entry partner): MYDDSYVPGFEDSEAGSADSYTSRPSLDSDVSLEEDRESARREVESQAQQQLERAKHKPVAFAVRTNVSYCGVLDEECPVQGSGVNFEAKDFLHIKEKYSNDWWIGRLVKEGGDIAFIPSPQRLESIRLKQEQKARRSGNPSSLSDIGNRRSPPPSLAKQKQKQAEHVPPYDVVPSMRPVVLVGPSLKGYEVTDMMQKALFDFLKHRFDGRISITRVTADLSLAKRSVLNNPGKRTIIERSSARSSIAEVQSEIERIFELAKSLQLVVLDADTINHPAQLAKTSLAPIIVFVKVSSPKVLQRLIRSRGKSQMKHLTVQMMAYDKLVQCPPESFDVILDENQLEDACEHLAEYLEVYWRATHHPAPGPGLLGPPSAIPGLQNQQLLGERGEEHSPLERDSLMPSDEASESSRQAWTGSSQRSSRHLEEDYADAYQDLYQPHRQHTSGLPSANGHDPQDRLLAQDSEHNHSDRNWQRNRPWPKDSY
T1 sequence (P54289 25-946 partner limits assumed): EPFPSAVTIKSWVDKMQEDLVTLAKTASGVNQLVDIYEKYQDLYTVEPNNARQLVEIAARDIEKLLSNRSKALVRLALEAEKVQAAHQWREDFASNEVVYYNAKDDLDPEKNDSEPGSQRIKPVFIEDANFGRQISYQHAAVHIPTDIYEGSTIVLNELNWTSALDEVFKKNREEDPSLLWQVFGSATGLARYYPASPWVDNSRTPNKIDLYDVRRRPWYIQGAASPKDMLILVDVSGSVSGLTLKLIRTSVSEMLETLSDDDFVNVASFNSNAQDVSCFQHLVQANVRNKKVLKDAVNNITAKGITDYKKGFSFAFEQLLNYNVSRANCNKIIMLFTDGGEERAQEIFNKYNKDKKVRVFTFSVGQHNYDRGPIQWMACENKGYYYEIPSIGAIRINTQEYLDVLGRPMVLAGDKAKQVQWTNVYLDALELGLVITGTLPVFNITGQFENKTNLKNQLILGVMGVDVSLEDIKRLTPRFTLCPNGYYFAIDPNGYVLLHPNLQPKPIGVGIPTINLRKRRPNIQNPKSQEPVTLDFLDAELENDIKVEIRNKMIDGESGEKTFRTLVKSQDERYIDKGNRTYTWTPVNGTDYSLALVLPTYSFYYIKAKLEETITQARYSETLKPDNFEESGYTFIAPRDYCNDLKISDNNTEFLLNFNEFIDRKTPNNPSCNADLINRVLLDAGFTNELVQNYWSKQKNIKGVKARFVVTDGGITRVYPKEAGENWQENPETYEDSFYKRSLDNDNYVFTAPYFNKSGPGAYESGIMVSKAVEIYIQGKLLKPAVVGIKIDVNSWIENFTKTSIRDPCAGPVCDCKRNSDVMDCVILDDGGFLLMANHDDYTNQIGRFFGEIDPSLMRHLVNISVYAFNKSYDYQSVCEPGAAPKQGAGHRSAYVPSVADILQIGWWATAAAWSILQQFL
T1 sequence (P54289 947-1103 partner limits assumed): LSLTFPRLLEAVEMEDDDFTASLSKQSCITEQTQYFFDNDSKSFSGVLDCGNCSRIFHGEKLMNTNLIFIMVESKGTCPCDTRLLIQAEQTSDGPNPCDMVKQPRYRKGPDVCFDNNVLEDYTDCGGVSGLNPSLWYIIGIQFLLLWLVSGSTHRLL
Kind of assay: High-throughput CaV2.2/Kir2.3 FLIPR fluorescent assay. Format: cell-based. The note with it: Table 4; Fluo-4 FLIPR; closed or inactivated state not stated; read-out: FLIPR data CaV2.2. Here is the method: Cells were plated in 384-well, clear-bottom, black-walled, poly-D-lysine coated plates (Becton Dickinson, Franklin Lake, N.J.) 2 days prior to use in the FLIPR assay. 100 μL of cells (1.4×10^6 cell/mL) containing doxycyline (Sigma-Aldrich, 1.5 μg/mL; to induce channel expression) were added to each well using a Multidrop (Thermo Scientific, Waltham, Mass.) and were maintained in 5% CO2 incubator at 37° C. On the morning of the assay, cells were transferred to a 5% CO2 incubator at 29° C.
Cells were washed with a wash buffer containing (in mM): 118 NaCl, 18.4 HEPES, 11.7 D-glucose, 2 CaCl2, 0.5 MgSO4, 4.7 KCl, 1.2 KH2PO4, pH adjusted to 7.2 with NaOH. 4.4 μM of the fluorescent indicator dye, Fluo-4 (Invitrogen), prepared in pluronic acid (Sigma-Aldrich), was loaded into the wells and incubated for 45 minutes at 29° C. in 5% CO2. Cells were then rinsed with either a 2 mM KCl closed-state buffer (in mM: 138.5 NaCl, 10 HEPES, 10 D-glucose, 1 CaCl2, and 2 KCl, with the pH adjusted to 7.4 with NaOH) when performing the closed-state assay or 12.5 mM KCl inactivated-state buffer (in mM: 128 NaCl, 10 HEPES, 10 D-glucose, 1 CaCl2, and 12.5 mM KCl, with the pH adjusted to 7.4 with NaOH) when performing the inactivated-state assay.
Calcium entry was evoked with an addition of 130 mM KCl stimulation buffer (in mM: 10.5 NaCl, 10 HEPES, 10 D-glucose, 1 CaCl2, and 130 KCl, with the pH adjusted to 7.4 with NaOH) for both the closed-state or inactivated-state assay. A change in the Fluo-4 fluorescence signal was assessed using FLIPR^TETRA™ instrument (Molecular Devices, Sunnyvale, Calif.) for 3 minutes following the elevation of extracellular KCl using an illumination wavelength of 470-495 nm with emissions recorded at 515-575 nm.
Concentration-dependent response curves were obtained by comparing the fluorescence signal in the presence of compound and fitted with a logistic function (1) to obtain the concentration that inhibited 50% (IC50) of the RLU signal using OriginPro v.7.5 software (OriginLab, Northampton, Mass.).
To assess the quality of the FLIPR assays the Z-factor (2) was used to quantify the suitability of the assay conditions using the following equation: […]
Data are expressed as mean and standard deviation (SD).
On to `O=C(NCc1ccc(S(=O)(=O)c2cccc(C(F)(F)F)c2)cc1)C1CCCN1` (stereo in doubt) [Compound 77, (R)-N-(4-((3-(trifluoromethyl)phenyl)sulfonyl)benzyl)pyrrolidine-2-carboxamide], for which the IC50 was found to be 690 nM.

As to `O=C(NCc1ccccc1S(=O)(=O)c1cccc(C(F)(F)F)c1)c1ccc(C(F)(F)F)nc1` [Compound 38], the IC50 came out at 1120 nM.

Take `CS(=O)(=O)c1nc(C(F)(F)F)ccc1C(=O)NCc1ccccc1S(=O)(=O)c1cccc(C(F)(F)F)c1` [Compound 40]: the IC50 was determined as 7000 nM.

For the molecule `O=C(NCc1ccccc1S(=O)(=O)c1cccc(C(F)(F)F)c1)c1cnc(C(F)(F)F)nc1` [Compound 45, 2-(trifluoromethyl)-N-(2-((3-(trifluoromethyl)phenyl)sulfonyl)benzyl)pyrimidine-5-carboxamide], the IC50 worked out at 1110 nM.

As to `O=C(NCc1ccccc1S(=O)(=O)c1cccc(C(F)(F)F)c1)c1ccnc(C(F)(F)F)n1` [Compound 46, 2-(trifluoromethyl)-N-(2-((3-(trifluoromethyl)phenyl)sulfonyl)benzyl)pyrimidine-4-carboxamide], the IC50 turned out to be 1740 nM.

For the molecule `O=C(NCc1ccccc1S(=O)(=O)c1cccc(C(F)(F)F)c1)c1ccnn1CC(F)(F)F` [Compound 48, 1-(2,2,2-trifluoroethyl)-N-(2-((3-(trifluoromethyl)phenyl)sulfonyl)benzyl)-1H-pyrazole-5-carboxamide], the IC50 is 1650 nM.

Regarding `COc1cc(C(=O)NCc2ccccc2S(=O)(=O)c2cccc(C(F)(F)F)c2)cc(Cl)n1` [Compound 49, 2-chloro-6-methoxy-N-(2-((3-(trifluoromethyl)phenyl)sulfonyl)benzyl)isonicotinamide], the IC50 came out at 1040 nM.

As to `O=C(NCc1ccccc1S(=O)(=O)c1cccc(C(F)(F)F)c1)c1ccnc(C(F)(F)F)c1` [Compound 50, 2-(trifluoromethyl)-N-(2-((3-(trifluoromethyl)phenyl)sulfonyl)benzyl)isonicotinamide], the IC50 turned out to be 1210 nM.

Regarding `O=C(CCC(F)(F)F)NCc1ccccc1S(=O)(=O)c1cccc(C(F)(F)F)c1` [Compound 55, 4,4,4-trifluoro-N-(2-((3-(trifluoromethyl)phenyl)sulfonyl)benzyl)butanamide], the IC50 is 2680 nM.

In the case of `O=C(NCc1ccc(S(=O)(=O)c2cccc(C(F)(F)F)c2)cc1)C1CCCCN1` (stereo not drawn) [Compound 59, N-(4-((3-(trifluoromethyl)phenyl)sulfonyl)benzyl)piperidine-2-carboxamide], the IC50 was 1000 nM.

`NC1(C(=O)NCc2ccc(S(=O)(=O)c3cccc(C(F)(F)F)c3)cc2)CCOCC1` [Compound 60, 4-amino-N-(4-((3-(trifluoromethyl)phenyl)sulfonyl)benzyl)tetrahydro-2H-pyran-4-carboxamide]: the IC50 is 4230 nM.

Turning to `NC1(C(=O)NCc2ccc(S(=O)(=O)c3cccc(C(F)(F)F)c3)cc2)CCS(=O)(=O)CC1` [Compound 61, 4-amino-N-(4-((3-(trifluoromethyl)phenyl)sulfonyl)benzyl)tetrahydro-2H-thiopyran-4-carboxamide 1,1-dioxide], the IC50 amounted to 4680 nM.

With `CO[C@H]1CN[C@@H](C(=O)NCc2ccc(S(=O)(=O)c3cccc(C(F)(F)F)c3)cc2)C1` [Compound 62, (2R,4R)-4-methoxy-N-(4-((3-(trifluoromethyl)phenyl)sulfonyl)benzyl)pyrrolidine-2-carboxamide], the IC50 turned out to be 620 nM.

Regarding `CC(C)(N)C(=O)NCc1ccc(S(=O)(=O)c2cccc(C(F)(F)F)c2)cc1` [Compound 64, 2-amino-2-methyl-N-(4-((3-(trifluoromethyl)phenyl)sulfonyl)benzyl)propanamide], the IC50 was found to be 4070 nM.

`NC1(C(=O)NCc2ccc(S(=O)(=O)c3cccc(C(F)(F)F)c3)cc2)CC1` [Compound 65, 1-amino-N-(4-((3-(trifluoromethyl)phenyl)sulfonyl)benzyl)cyclopropanecarboxamide]: the IC50 worked out at 5630 nM.

For the molecule `NC1(C(=O)NCc2ccc(S(=O)(=O)c3cccc(C(F)(F)F)c3)cc2)CCC1` [Compound 66, 1-amino-N-(4-((3-(trifluoromethyl)phenyl)sulfonyl)benzyl)cyclobutanecarboxamide], the IC50 amounted to 1930 nM.

Take `O=C(NCc1ccc(S(=O)(=O)c2cccc(C(F)(F)F)c2)cc1)[C@@H]1C[C@@H](F)CN1` [Compound 68, (2S,4R)-4-fluoro-N-(4-((3-(trifluoromethyl)phenyl)sulfonyl)benzyl)pyrrolidine-2-carboxamide]: the IC50 amounted to 2300 nM.

As for `O=C(NCc1ccccc1S(=O)(=O)c1cccc(C(F)(F)F)c1)[C@@H]1C[C@@H](F)CN1` [Compound 69, (2S,4R)-4-fluoro-N-(2-((3-(trifluoromethyl)phenyl)sulfonyl)benzyl)pyrrolidine-2-carboxamide], the IC50 is 9140 nM.

For `O=C(NCc1ccc(S(=O)(=O)c2cccc(C(F)(F)F)c2)cc1)[C@@H]1C[C@H](F)CN1` [Compound 70, (2S,4S)-4-fluoro-N-(4-((3-(trifluoromethyl)phenyl)sulfonyl)benzyl)pyrrolidine-2-carboxamide], the IC50 is 4740 nM.

Consider `O=C(NCc1ccc(S(=O)(=O)c2cccc(C(F)(F)F)c2)cc1)[C@@H]1CCCN1` [Compound 73, (S)-N-(4-((3-(trifluoromethyl)phenyl)sulfonyl)benzyl)pyrrolidine-2-carboxamide], for which the IC50 was determined as 1920 nM.

In the case of `O=C(NCc1ccc(S(=O)(=O)c2cccc(C(F)(F)F)c2)cc1)[C@@H]1C[C@@H](O)CN1` [Compound 74, (2S,4R)-4-hydroxy-N-(4-((3-(trifluoromethyl)phenyl)sulfonyl)benzyl)pyrrolidine-2-carboxamide], the IC50 came out at 2360 nM.

Regarding `O=C(NCc1ccccc1S(=O)(=O)c1cccc(C(F)(F)F)c1)[C@@H]1CCCN1` [Compound 76, (S)-N-(2-((3-(trifluoromethyl)phenyl)sulfonyl)benzyl)pyrrolidine-2-carboxamide], the IC50 is 5540 nM.

For `O=C(NCc1ccccc1S(=O)(=O)c1cccc(C(F)(F)F)c1)[C@H]1CCCN1` [Compound 78, (R)-N-(2-((3-(trifluoromethyl)phenyl)sulfonyl)benzyl)pyrrolidine-2-carboxamide], the IC50 was determined as 3750 nM.

Consider `CO[C@H]1CN[C@@H](C(=O)NCc2ccc(S(=O)(=O)c3cccc(C(F)(F)F)c3)cc2)C1` [Compound 82, (2R,4R)-4-methoxy-N-(4-((3-(trifluoromethyl)phenyl)sulfonyl)benzyl)pyrrolidine-2-carboxamide], for which the IC50 was 970 nM.

As to `CN1CCCCC1C(=O)NCc1ccc(S(=O)(=O)c2cccc(C(F)(F)F)c2)cc1` (stereo not drawn) [Compound 84, 1-methyl-N-(4-((3-(trifluoromethyl)phenyl)sulfonyl)benzyl)piperidine-2-carboxamide], the IC50 is 2280 nM.

On to `CC1(C(=O)NCc2ccc(S(=O)(=O)c3cccc(C(F)(F)F)c3)cc2)CCCCN1` (stereo not drawn) [Compound 85, 2-methyl-N-(4-((3-(trifluoromethyl)phenyl)sulfonyl)benzyl)piperidine-2-carboxamide], for which the IC50 was 1940 nM.

For `CS(=O)(=O)c1nc(C(F)(F)F)ccc1C(=O)NCc1ccc(S(=O)(=O)c2cccc(C(F)(F)F)c2)cn1` [Compound 92, 2-(methylsulfonyl)-6-(trifluoromethyl)-N-((5-((3-(trifluoromethyl)phenyl)sulfonyl)pyridin-2-yl)methyl)nicotinamide], the IC50 is 2330 nM.

Consider `O=C(NCc1ccc(S(=O)(=O)c2cccc(C(F)(F)F)c2)cn1)c1ccnn1CC(F)(F)F` [Compound 100, 1-(2,2,2-trifluoroethyl)-N-((5-((3-(trifluoromethyl)phenyl)sulfonyl)pyridin-2-yl)methyl)-1H-pyrazole-5-carboxamide], for which the IC50 amounted to 1320 nM.

Consider `COc1cc(C(=O)NCc2ccc(S(=O)(=O)c3cccc(C(F)(F)F)c3)cn2)cc(Cl)n1` [Compound 101, 2-chloro-6-methoxy-N-((5-((3-(trifluoromethyl)phenyl)sulfonyl)pyridin-2-yl)methyl)isonicotinamide], for which the IC50 amounted to 1460 nM.

For `O=C(NCc1ccc(S(=O)(=O)c2cccc(C(F)(F)F)c2)cn1)c1ccnc(C(F)(F)F)c1` [Compound 102, 2-(trifluoromethyl)-N-((5-((3-(trifluoromethyl)phenyl)sulfonyl)pyridin-2-yl)methyl)isonicotinamide], the IC50 amounted to 1410 nM.
